Assay results from publication PMC9774391 (ACS Omega, 2022).

Key:
MAO-B = molecular target: T1, MAO-B (Homo sapiens, UniProt P27338); assay: In vitro MAO-B inhibition assay (fluorometric); format: biochemical; details: for inhibition at 1000 µM: 10^–3 M; for inhibition at 100 µM: 10^–4 M; for inhibition at 10 µM: 10^–5 M; for inhibition at 1 µM: 10^–6 M; for inhibition at 0.1 µM: 10^–7 M; for inhibition at 0.01 µM: 10^–8 M; for inhibition at 0.001 µM: 10^–9 M
T1 sequence (P27338 1-520): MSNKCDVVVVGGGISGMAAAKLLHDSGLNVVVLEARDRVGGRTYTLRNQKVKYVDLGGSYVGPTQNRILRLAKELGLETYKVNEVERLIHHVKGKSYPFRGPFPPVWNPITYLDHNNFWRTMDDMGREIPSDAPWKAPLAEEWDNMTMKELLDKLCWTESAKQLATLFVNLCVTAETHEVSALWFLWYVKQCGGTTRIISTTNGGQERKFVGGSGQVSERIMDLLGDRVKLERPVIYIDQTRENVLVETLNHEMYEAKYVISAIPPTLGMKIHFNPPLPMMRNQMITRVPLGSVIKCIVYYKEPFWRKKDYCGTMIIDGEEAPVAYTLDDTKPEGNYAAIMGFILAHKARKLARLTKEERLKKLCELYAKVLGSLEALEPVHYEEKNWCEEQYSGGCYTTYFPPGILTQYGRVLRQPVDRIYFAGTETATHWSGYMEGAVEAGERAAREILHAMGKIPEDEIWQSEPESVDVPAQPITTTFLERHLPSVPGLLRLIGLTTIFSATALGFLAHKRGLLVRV

MAO-A = molecular target: T2, MAO-A (Homo sapiens, UniProt P21397); assay: In vitro MAO-A inhibition assay (fluorometric); format: biochemical; details: for inhibition at 1000 µM: 10^–3 M; for inhibition at 100 µM: 10^–4 M
T2 sequence (P21397 1-527): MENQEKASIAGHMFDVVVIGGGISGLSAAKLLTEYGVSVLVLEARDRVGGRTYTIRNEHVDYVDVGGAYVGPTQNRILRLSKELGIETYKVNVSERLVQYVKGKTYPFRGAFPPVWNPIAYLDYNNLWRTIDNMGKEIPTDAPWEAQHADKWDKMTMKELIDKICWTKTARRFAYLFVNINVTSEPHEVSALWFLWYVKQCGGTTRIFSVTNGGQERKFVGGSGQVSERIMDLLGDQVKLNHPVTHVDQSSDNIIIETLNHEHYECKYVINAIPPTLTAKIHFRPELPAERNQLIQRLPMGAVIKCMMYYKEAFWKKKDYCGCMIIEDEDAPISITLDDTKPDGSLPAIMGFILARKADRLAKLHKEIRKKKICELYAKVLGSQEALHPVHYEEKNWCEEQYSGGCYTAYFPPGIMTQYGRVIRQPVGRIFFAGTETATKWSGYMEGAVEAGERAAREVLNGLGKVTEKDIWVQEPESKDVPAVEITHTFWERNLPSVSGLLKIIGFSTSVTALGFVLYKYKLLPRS

BChE [1] = molecular target: T3, BChE (Homo sapiens, UniProt P06276); assay: biochemical; details: for inhibition at 1000 µM: 10^–3 M; for inhibition at 100 µM: 10^–4 M; for inhibition at 10 µM: 10^–5 M; for inhibition at 1 µM: 10^–6 M; for inhibition at 0.1 µM: 10^–7 M; for inhibition at 0.01 µM: 10^–8 M; for inhibition at 0.001 µM: 10^–9 M
T3 sequence (P06276 29-602): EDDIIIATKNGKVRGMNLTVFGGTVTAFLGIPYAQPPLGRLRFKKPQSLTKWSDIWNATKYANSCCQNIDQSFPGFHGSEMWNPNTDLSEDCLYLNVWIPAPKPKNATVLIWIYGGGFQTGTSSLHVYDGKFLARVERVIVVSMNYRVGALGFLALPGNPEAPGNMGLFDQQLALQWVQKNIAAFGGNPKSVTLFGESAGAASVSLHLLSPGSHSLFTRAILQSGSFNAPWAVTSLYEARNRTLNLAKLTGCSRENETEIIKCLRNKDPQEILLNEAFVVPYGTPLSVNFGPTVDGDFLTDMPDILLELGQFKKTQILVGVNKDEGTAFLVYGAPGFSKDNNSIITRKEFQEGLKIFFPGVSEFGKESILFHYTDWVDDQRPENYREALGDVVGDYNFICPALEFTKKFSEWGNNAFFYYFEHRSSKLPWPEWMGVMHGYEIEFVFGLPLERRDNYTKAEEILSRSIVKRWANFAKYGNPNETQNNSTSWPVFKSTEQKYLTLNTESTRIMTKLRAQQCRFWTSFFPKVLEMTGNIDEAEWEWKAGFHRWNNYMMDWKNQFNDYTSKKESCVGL
Description: (§1) According to the modified Ellman approach outlined in our team’s earlier work, the AChE and BChE inhibitory activities of the obtained compounds were evaluated.[18]−[21]

AChE = AChE (Homo sapiens, UniProt P22303); assay: biochemical; details: for inhibition at 1000 µM: 10^–3 M; for inhibition at 100 µM: 10^–4 M; for inhibition at 10 µM: 10^–5 M; for inhibition at 1 µM: 10^–6 M; for inhibition at 0.1 µM: 10^–7 M; for inhibition at 0.01 µM: 10^–8 M; for inhibition at 0.001 µM: 10^–9 M
Chain of AChE (P22303 32-614): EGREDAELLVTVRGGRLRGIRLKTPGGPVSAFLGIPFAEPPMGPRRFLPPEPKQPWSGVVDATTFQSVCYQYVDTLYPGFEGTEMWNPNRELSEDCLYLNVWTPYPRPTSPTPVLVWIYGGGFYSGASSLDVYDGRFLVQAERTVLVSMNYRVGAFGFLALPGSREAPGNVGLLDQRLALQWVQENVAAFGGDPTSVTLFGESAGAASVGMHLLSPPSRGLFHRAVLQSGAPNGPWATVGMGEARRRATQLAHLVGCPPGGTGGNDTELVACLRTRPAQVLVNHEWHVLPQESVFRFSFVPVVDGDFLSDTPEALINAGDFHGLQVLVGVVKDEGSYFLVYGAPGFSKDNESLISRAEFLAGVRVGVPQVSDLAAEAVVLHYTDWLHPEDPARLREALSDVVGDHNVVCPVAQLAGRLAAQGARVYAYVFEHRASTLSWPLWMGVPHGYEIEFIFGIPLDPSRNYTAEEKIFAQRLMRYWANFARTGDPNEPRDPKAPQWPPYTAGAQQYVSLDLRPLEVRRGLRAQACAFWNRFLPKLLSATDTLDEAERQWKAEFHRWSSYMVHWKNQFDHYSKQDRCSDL
Description: as §1

Cytotoxicity test (MTT) = format: cell-based; details: NIH/3T3 mouse embryonic fibroblast cells (ATCC CRL-1658), NIH/3T3 mouse fibroblast healthy cell line
Description: The NIH/3T3 cells were incubated according to the manufacturer’s recommendations. In 96-well plates, NIH/3T3 cells were seeded at a density of 1 × 10^4 cells per well. The MTT test was conducted in line with the previously mentioned standards.[19],[22],[23],[28],[30]

[2] = DPPH free-radical scavenging activity assay; details: serial dilution 10^–3–10^–9 M; read-out: IC50 on DPPH antioxidant activity
Description: This approach is based on evaluating the free-radical scavenging abilities of the stable 1,1-diphenyl-2-picrylhydrazyl (DPPH) radical. To create the DPHH solution, 9.86 mg of DPPH was weighed and diluted to 25 mL with methanol. The test wells were then filled with 100 μL of the DPPH solution and 100 μL of the test solutions. Only 200 μL of methanol was used for the blank reading, while the control reading required the usage of 100 μL each of methanol and the DPPH solution. Following incubation, a spectrophotometric measurement at 517 nm was carried out.[26],[27]

Beta Amyloid 1–42 (Aβ42) = molecular target: T4, Beta Amyloid 1–42 (Aβ42) (Homo sapiens, UniProt P05067); assay: Beta Amyloid 1–42 (Aβ42) inhibitor screening assay; format: biochemical; details: for inhibition at 100 µM: 10^–4 M
T4 construct: The Beta Amyloid 1–42 (Aβ42) Ligand Screening Assay kit; purchased BioVision, Milpitas, CA
T4 sequence (P05067 672-713 limits assumed): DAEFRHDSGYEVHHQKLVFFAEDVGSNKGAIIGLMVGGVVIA
Source text: The Beta Amyloid 1–42 (Aβ42) Ligand Screening Assay kit (BioVision, Milpitas, CA) technique based on the fluorometric approach served as the basis for the experimental process.[21],[28],[29]

BChE [3] = molecular target: T3, BChE; assay: Enzyme kinetics on BChE (Lineweaver–Burk); format: biochemical
Description: The experimental procedures used in the kinetic investigations were identical to those used in the inhibition experiments. […]. Acetylthiocholine iodide (ATC) and butyrylthiocholine iodide (BTC) solutions were utilized as the substrates for the ChE enzymes, with serial dilutions at six different concentrations (600, 300, 150, 75, 37.5, and 18.75 μM). The tyramine substrate solution (concentrations ranging from 20 to 0.625 μM) was produced for the MAO enzymes at six different concentrations. Separate measurements were conducted both with and without an inhibitor. Using the Microsoft Office Excel 2013 program, the resulting absorbance values were compared to various substrate concentrations, and Lineweaver–Burk plots were created.[19]−[22]
The absorbance data from the experiments and the substrate concentrations were used to generate Lineweaver–Burk plots. The graphic’s x-axis stands for 1/[S] […] […]. The intersection of these four lines on the diagram was used to define the type of substrate and inhibitor reaction against the enzyme.
Reversible and irreversible inhibition of enzymes are the two categories that inhibition is commonly subdivided into. In irreversible inhibition, the inhibitor either creates a recalcitrant complex structure or establishes a covalent bond with the enzyme. […]

[4] = read-out: % β-amyloid plaque inhibition

Structure (SMILES)	inhibition at 1000 µM (MAO-B) [%]	inhibition at 100 µM (MAO-B) [%]	inhibition at 1000 µM (MAO-A) [%]	inhibition at 100 µM (MAO-A) [%]	inhibition at 1000 µM (BChE [1]) [%]	inhibition at 100 µM (BChE [1]) [%]	IC50 (AChE) [nM]	inhibition at 1000 µM (AChE) [%]	inhibition at 100 µM (AChE) [%]	inhibition at 10 µM (AChE) [%]	inhibition at 1 µM (AChE) [%]	inhibition at 0.1 µM (AChE) [%]	inhibition at 0.01 µM (AChE) [%]	inhibition at 0.001 µM (AChE) [%]	IC50 (Cytotoxicity test (MTT)) [nM]	IC50 [2] [nM]	IC50 (MAO-B) [nM]	inhibition at 10 µM (MAO-B) [%]	inhibition at 1 µM (MAO-B) [%]	inhibition at 0.1 µM (MAO-B) [%]	other results
COc1cc2c(cc1OC)C(=O)/C(=C/c1ccc(NC(=O)CN(C)CCN(C)C)cc1)C2 [D36]	84.6 ± 1.01	45.2 ± 0.584	82.4 ± 0.873	43 ± 0.771	100 ± 1.25	41 ± 0.608	235 ± 11.3	91.9 ± 1.47	86.6 ± 1.57	78.6 ± 1.03	58.8 ± 0.893	38.2 ± 0.539	33.1 ± 0.491	20.6 ± 0.374	3620 ± 129	251 ± 10					
COc1ccc2c(c1)C(=O)/C(=C/c1ccc(NC(=O)CN(C)CCCN(C)C)cc1)C2 [D38]	94.8 ± 1.43	88.6 ± 1.38	95 ± 2.39	24.1 ± 0.853	93.3 ± 1.37	90.6 ± 1.3	47.3 ± 1.6	93.2 ± 1.72	90.5 ± 1.3	81.6 ± 1.17	74 ± 0.956	68.2 ± 0.862	37.2 ± 0.562	19.7 ± 0.711	6810 ± 118	190 ± 7.8	35.9 ± 1.3	84.6 ± 1.58	78.2 ± 1.41	62.5 ± 0.925	inhibition at 0.01 µM (MAO-B): 42.3 ± 0.623%; inhibition at 0.001 µM (MAO-B): 20.7 ± 0.318%; IC50 (BChE [1]): 78.2 ± 2.9 nM; inhibition at 10 µM (BChE [1]): 85.4 ± 1.3%; inhibition at 1 µM (BChE [1]): 78.6 ± 1.11%; inhibition at 0.1 µM (BChE [1]): 58.7 ± 0.952%; inhibition at 0.01 µM (BChE [1]): 28.8 ± 0.714%; inhibition at 0.001 µM (BChE [1]): 18.4 ± 0.633%; inhibition at 100 µM (Beta Amyloid 1–42 (Aβ42); [4]): > 50%
COc1cc2c(cc1OC)C(=O)/C(=C/c1ccc(NC(=O)CN(C)CCCN(C)C)cc1)C2 [D39]	95.3 ± 1.06	87.2 ± 1.82	89.8 ± 1.44	36.2 ± 0.756	92.8 ± 1.36	87.3 ± 1.25	45.8 ± 0.9	92.6 ± 1.62	88.7 ± 1.19	81.7 ± 1.16	73.3 ± 0.952	64.3 ± 0.687	40.2 ± 0.528	20.5 ± 0.492	12300 ± 416		39.3 ± 1.1	84.8 ± 1.64	78.6 ± 1.25	60.2 ± 0.956	type of inhibition of BChE (BChE [3]; Lineweaver–Burk plots): mixed inhibition; Ki (BChE [3]; secondary plot of Lineweaver–Burk data, read-out: steady-state inhibition constant (Ki), BChE): 61.7 nM; inhibition at 0.01 µM (MAO-B): 36.2 ± 0.488%; inhibition at 0.001 µM (MAO-B): 25.6 ± 0.359%; IC50 (BChE [1]): 75 ± 3.2 nM; inhibition at 10 µM (BChE [1]): 81.4 ± 1.33%; inhibition at 1 µM (BChE [1]): 73.7 ± 1.15%; inhibition at 0.1 µM (BChE [1]): 55.4 ± 0.678%; inhibition at 0.01 µM (BChE [1]): 34.7 ± 0.511%; inhibition at 0.001 µM (BChE [1]): 21.6 ± 0.485%; inhibition at 1000 µM (Beta Amyloid 1–42 (Aβ42); 10^–3 M, read-out: % β-amyloid plaque inhibition): ≥ 80%; inhibition at 100 µM (Beta Amyloid 1–42 (Aβ42); [4]): 69.8 ± 0.778%; IC50 (Beta Amyloid 1–42 (Aβ42); read-out: IC50 on β-amyloid plaque aggregation): 197 ± 7.9 nM
